Where two headings read alike, the source gives them in different places.
Assays:
[1] = test system: purified bovine brain tubulin; assay: Tubulin polymerization assay (light scattering, BK006 kit); format: biochemical; settings: compound at 10 μM; for Fold Reduction in Vmax: relative to vehicle; for Vmax: 37 °C, 340 nm
In short: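 Purified bovine brain tubulin (3 mg/mL) in PIPES 80 mM pH 6.9, EGTA, MgCl2, 1 mM GTP, 10% glycerol incubated at 37 °C with compound at 10 µM or vehicle (1% DMSO or EtOH). Assembly followed turbidimetrically at 340 nm; values are means of two independent assays.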

CCRF-CEM = assay: NCI-60 SRB screen, leukemia; format: cell-based; settings: Homo sapiens, 48 h
HL-60(TB) = assay: NCI-60 SRB screen, leukemia; format: cell-based, human; settings: Homo sapiens
RPMI-8226 = assay: NCI-60 SRB screen, leukemia; format: cell-based, human; settings: Homo sapiens
SR = assay: NCI-60 SRB screen, leukemia; format: cell-based, human; settings: Homo sapiens, 48 h
A549/ATCC = assay: NCI-60 SRB screen, non-small cell lung cancer; format: cell-based, human; settings: Homo sapiens
HOP-92 = assay: NCI-60 SRB screen, non-small cell lung cancer; format: cell-based, human; settings: Homo sapiens
NCI-H226 = assay: NCI-60 SRB screen, non-small cell lung cancer; format: cell-based; settings: Homo sapiens
COLO 205 = assay: NCI-60 SRB screen, colon cancer; format: cell-based, human; settings: Homo sapiens
HCT-2998 = assay: NCI-60 SRB screen, colon cancer; format: cell-based, human; settings: Homo sapiens, 48 h
HT29 = assay: NCI-60 SRB screen, colon cancer; format: cell-based, human; settings: Homo sapiens
KM12 = assay: NCI-60 SRB screen, colon cancer; format: cell-based, human; settings: Homo sapiens
SW-620 = assay: NCI-60 SRB screen, colon cancer; format: cell-based, human; settings: Homo sapiens
SF539 = assay: NCI-60 SRB screen, CNS cancer; format: cell-based, human; settings: Homo sapiens
U251 = assay: NCI-60 SRB screen, CNS cancer; format: cell-based, human; settings: Homo sapiens
LOX IMVI = assay: NCI-60 SRB screen, melanoma; format: cell-based, human; settings: Homo sapiens, 48 h
MDA-MB-435 = assay: NCI-60 SRB screen, melanoma; format: cell-based, human; settings: Homo sapiens
SK-MEL-28 = assay: NCI-60 SRB screen, melanoma; format: cell-based, human; settings: Homo sapiens
IGROV1 = assay: NCI-60 SRB screen, ovarian cancer; format: cell-based, human; settings: Homo sapiens
OVCAR-8 = assay: NCI-60 SRB screen, ovarian cancer; format: cell-based, human; settings: Homo sapiens
SK-OV-3 = assay: NCI-60 SRB screen, ovarian cancer; format: cell-based, human; settings: Homo sapiens
786-0 = assay: NCI-60 SRB screen, renal cancer; format: cell-based, human; settings: Homo sapiens
ACHN = assay: NCI-60 SRB screen, renal cancer; format: cell-based, human; settings: Homo sapiens, 48 h
CAKI-1 = assay: NCI-60 SRB screen, renal cancer; format: cell-based, human; settings: Homo sapiens
RXF 393 = assay: NCI-60 SRB screen, renal cancer; format: cell-based, human; settings: Homo sapiens
SN12C = assay: NCI-60 SRB screen, renal cancer; format: cell-based, human; settings: Homo sapiens, 48 h
MDA-MB-231/ATCC = assay: NCI-60 SRB screen, breast cancer; format: cell-based, human; settings: Homo sapiens; for IC50: read-out: Antiproliferative Activity IC50
BT-549 = assay: NCI-60 SRB screen, breast cancer; format: cell-based, human; settings: Homo sapiens
[2] = five dose 0.01–100 µM, read-out: GI50
[3] = HL-60(TB), five dose 0.01–100 µM, 48 h

C=CCC1C(=O)N(c2cc(OC)c(OC)c(OC)c2)C1c1ccc(OC)c(O)c1 (stereo not shown) [10p, 4-(3-Hydroxy-4-methoxyphenyl)-1-(3,4,5-trimethoxyphenyl)-3-allylazetidin-2-one]
Fold Reduction in Vmax [1]: 4.5
GI50 (CCRF-CEM; [2]): 36.1 nM
GI50 (HL-60(TB); [3]): 32.3 nM
GI50 (HL-60(TB); HL-60, NCI screen): < 34 nM
GI50 (RPMI-8226; RPMI-8226, five dose 0.01–100 µM, 48 h, read-out: GI50): 40.6 nM
GI50 (SR; [2]): 31.4 nM
GI50 (A549/ATCC; A549/ATCC, five dose 0.01–100 µM, 48 h, read-out: GI50): 37.3 nM
GI50 (HOP-92; HOP-92, five dose 0.01–100 µM, 48 h, read-out: GI50): 23.8 nM
GI50 (NCI-H226; NCI-H226, five dose 0.01–100 µM, 48 h, read-out: GI50): 56 nM
GI50 (COLO 205; COLO 205, five dose 0.01–100 µM, 48 h, read-out: GI50): 563 nM
GI50 (HCT-2998; HCT-2998, five dose 0.01–100 µM, read-out: GI50): 29.9 nM
GI50 (HT29; HT-29, HT29, five dose 0.01–100 µM, 48 h, read-out: GI50): 360 nM
GI50 (KM12; KM12, five dose 0.01–100 µM, 48 h, read-out: GI50): 22.4 nM
GI50 (SW-620; SW-620, five dose 0.01–100 µM, 48 h, read-out: GI50): 42.2 nM
GI50 (SF539; SF-539, SF539, five dose 0.01–100 µM, 48 h, read-out: GI50): 38.2 nM
GI50 (U251; U-251, U251, five dose 0.01–100 µM, 48 h, read-out: GI50): 31.7 nM
GI50 (LOX IMVI; [2]): 33.9 nM
GI50 (MDA-MB-435; MDA-MB-435, five dose 0.01–100 µM, 48 h, read-out: GI50): 20.5 nM
GI50 (SK-MEL-28; SK-MEL-28, five dose 0.01–100 µM, 48 h, read-out: GI50): 76200 nM
GI50 (IGROV1; IGROV-1, IGROV1, five dose 0.01–100 µM, 48 h, read-out: GI50): 44.8 nM
GI50 (OVCAR-8; OVCAR-8, five dose 0.01–100 µM, 48 h, read-out: GI50): 34 nM
GI50 (SK-OV-3; SK-OV-3, five dose 0.01–100 µM, 48 h, read-out: GI50): 36.6 nM
GI50 (786-0; 786-0, five dose 0.01–100 µM, 48 h, read-out: GI50): 25.5 nM
GI50 (ACHN; [2]): 53.2 nM
GI50 (CAKI-1; CAKI-1, five dose 0.01–100 µM, 48 h, read-out: GI50): 44 nM
GI50 (RXF 393; RXF 393, five dose 0.01–100 µM, 48 h, read-out: GI50): 41 nM
GI50 (SN12C; [2]): 29.8 nM
GI50 (MDA-MB-231/ATCC; MDA-MB-231/ATCC, five dose 0.01–100 µM, 48 h, read-out: GI50): 24 nM
IC50 (MDA-MB-231/ATCC; MDA-MB-231, obtained from NCI, five concentrations 0.01–100 μM, 48 h): 27.4 nM
GI50 (BT-549; BT-549, five dose 0.01–100 µM, 48 h, read-out: GI50): 18.8 nM

C=C/C=C/C1C(=O)N(c2cc(OC)c(OC)c(OC)c2)C1c1ccc(OC)c(N)c1 (stereo not shown) [11r, (E)-4-(3-Amino-4-methoxyphenyl)-3-(buta-1,3-dien-1-yl)-1-(3,4,5-trimethoxyphenyl)azetidin-2-one]
Vmax [1]: 0.0035 mOD/min
Fold Reduction in Vmax [1]: 2.0
GI50 (CCRF-CEM): 36.5 nM
GI50 (HL-60(TB); [3]): 29.5 nM
GI50 (HL-60(TB); HL-60, NCI screen): < 34 nM
GI50 (RPMI-8226; RPMI-8226, 48 h): 34.8 nM
GI50 (SR): 33.5 nM
GI50 (A549/ATCC; A549, 48 h): 38 nM
GI50 (HOP-92; HOP-92, 48 h): 25.3 nM
GI50 (NCI-H226; NCI-H226, 48 h): 56.4 nM
GI50 (COLO 205; COLO 205, 48 h): 23.1 nM
GI50 (HCT-2998): 27 nM
IC50 (HT29; HT-29): 34 nM
GI50 (HT29; HT-29, 48 h): 33.6 nM
GI50 (KM12; KM12, 48 h): 33.1 nM
GI50 (SW-620; SW-620, 48 h): 42.9 nM
GI50 (SF539; SF-539, 48 h): 39 nM
GI50 (U251; U-251, 48 h): 35.7 nM
GI50 (LOX IMVI): 34.4 nM
GI50 (MDA-MB-435; MDA-MB-435, 48 h): 22.1 nM
GI50 (SK-MEL-28; SK-MEL-28, 48 h): > 100000 nM
GI50 (IGROV1; IGROV-1, 48 h): 46.6 nM
GI50 (OVCAR-8; OVCAR-8, 48 h): 38.4 nM
GI50 (SK-OV-3; SK-OV-3, 48 h): 35.6 nM
GI50 (786-0; 786-0, 48 h): 32.7 nM
GI50 (ACHN): 61.4 nM
GI50 (CAKI-1; CAKI-1, 48 h): 63.1 nM
GI50 (RXF 393; RXF 393, 48 h): 45.7 nM
GI50 (SN12C): 59.1 nM
GI50 (MDA-MB-231/ATCC; MDA-MB-231, 48 h): 31.5 nM
IC50 (MDA-MB-231/ATCC; MDA-MB-231, 48 h): 33.7 nM
GI50 (BT-549; BT-549, 48 h): 25.3 nM

C=CC=CC1C(=O)N(c2cc(OC)c(OC)c(OC)c2)C1c1ccc(OC)cc1 (stereo not shown) [11h, 3-(Buta-1,3-dienyl)-4-(4-methoxyphenyl)-1-(3,4,5-trimethoxyphenyl)azetidin-2-one]
Vmax [1]: 0.0035 mOD/min
Fold Reduction in Vmax [1]: 2.9
GI50 (CCRF-CEM): 37.8 nM
GI50 (HL-60(TB); [3]): 33.8 nM
GI50 (HL-60(TB); HL-60, NCI screen): < 34 nM
GI50 (RPMI-8226; RPMI-8226, 48 h): 38.4 nM
GI50 (SR): 35.6 nM
GI50 (A549/ATCC; A549, 48 h): 36.4 nM
GI50 (HOP-92; HOP-92, 48 h): 24.4 nM
GI50 (NCI-H226; NCI-H226, 48 h): 76.8 nM
GI50 (COLO 205; COLO 205, 48 h): 26.5 nM
GI50 (HCT-2998): 30 nM
IC50 (HT29; HT-29): 33 nM
GI50 (HT29; HT-29, 48 h): 33.2 nM
GI50 (KM12; KM12, 48 h): 30.4 nM
GI50 (SW-620; SW-620, 48 h): 43.8 nM
GI50 (SF539; SF-539, 48 h): 33.2 nM
GI50 (U251; U-251, 48 h): 32.2 nM
GI50 (LOX IMVI): 32.7 nM
GI50 (MDA-MB-435; MDA-MB-435, 48 h): 19.1 nM
GI50 (SK-MEL-28; SK-MEL-28, 48 h): 16000 nM
GI50 (IGROV1; IGROV-1, 48 h): 50.7 nM
GI50 (OVCAR-8; OVCAR-8, 48 h): 37.4 nM
GI50 (SK-OV-3; SK-OV-3, 48 h): 37.3 nM
GI50 (786-0; 786-0, 48 h): 23.1 nM
GI50 (ACHN): 60.7 nM
GI50 (CAKI-1; CAKI-1, 48 h): 58.9 nM
GI50 (RXF 393; RXF 393, 48 h): 30.1 nM
GI50 (SN12C): 50.8 nM
GI50 (MDA-MB-231/ATCC; MDA-MB-231, 48 h): 29.6 nM
IC50 (MDA-MB-231/ATCC; MDA-MB-231, 48 h): 31.1 nM
GI50 (BT-549; BT-549, 48 h): 20.3 nM

— paper PMC10385824, “Antiproliferative and Tubulin-Destabilising Effects of 3-(Prop-1-en-2-yl)azetidin-2-Ones and Related Compounds in MCF-7 and MDA-MB-231 Breast Cancer Cells” (Pharmaceuticals, 2023)
